Article PMC8512562, “Semisynthetic Derivatives of Selected Amaryllidaceae Alkaloids as a New Class of Antimycobacterial Agents” (Molecules, 2021)
In brackets after ≈: the same amount, converted by molar mass. Read-outs that look alike come from different tables or passages of the source.

What was measured:
[1] = system: Mycobacterium tuberculosis H37Ra; assay: Antimycobacterial screening (microdilution broth, resazurin) against M. tuberculosis H37Ra; type: cell-based; conditions: Mycobacterium tuberculosis
[2] = system: Mycobacterium smegmatis DSM 43465 (ATCC 607); assay: Antimycobacterial screening (microdilution broth, resazurin) against M. smegmatis; type: cell-based; conditions: Mycolicibacterium smegmatis, read-out: MIC M. smegmatis
[3] = system: Mycobacterium aurum DSM 43999 (ATCC 23366); assay: Antimycobacterial screening (microdilution broth, resazurin) against M. aurum; type: cell-based; conditions: Mycolicibacterium aurum, 72 h, read-out: MIC M. aurum
HepG2 cells = assay: cells; type: cell-based, Human; conditions: for IC50: Homo sapiens, HepG2, MTT, 24 h incubation
[4] = system: M. tuberculosis H37Ra, M. aurum and M. smegmatis; assay: Antimycobacterial screening, MICs stated over all studied strains; type: cell-based, Mycobacterium; conditions: range over M. tuberculosis H37Ra, M. aurum, M. smegmatis; read-out: MICs against all studied strains
[5] = H37RA, read-out: MIC Mtb H37Ra (µM)
[6] = M. tuberculosis H37Ra, resazurin added after 120 h, read-out: MIC Mtb H37Ra

| SMILES | MIC [1, 5] | MIC [1, 6] | MIC ([2]; resazurin added after 48 h) | MIC [3] | MIC ([2]; 48 h) | SI (selectivity index) (HepG2 cells) | IC50 (HepG2 cells) | MIC [4] |
| --- | --- | --- | --- | --- | --- | --- | --- | --- |
| COc1ccc2c3c1O[C@H]1C[C@@H](OC(=O)c4ccccc4)C=C[C@@]31CCN(C)C2 [1a, 6-O-benzoylgalanthamine] | 79.8 µM | 31.2 µg/mL | ≥ 500 µg/mL | 31.2 µg/mL (≈ 79.8 µM) | – | – | – | – |
| COc1ccc2c3c1O[C@H]1C[C@@H](OC(=O)c4ccccc4C)C=C[C@@]31CCN(C)C2 [1b, 6-O-(2-methylbenzoyl)galanthamine] | 35.4 µM | 15.6 µg/mL | – | 31.2 µg/mL (≈ 77.1 µM) | 31.2 µg/mL (≈ 77.1 µM) | – | – | – |
| COc1ccc2c3c1O[C@H]1C[C@@H](OC(=O)c4cccc(C)c4)C=C[C@@]31CCN(C)C2 [1c, 6-O-(3-methylbenzoyl)galanthamine] | 35.4 µM | 15.6 µg/mL | – | 15.6 µg/mL (≈ 38.5 µM) | 31.2 µg/mL (≈ 77.1 µM) | – | – | – |
| COc1ccc2c3c1O[C@H]1C[C@@H](OC(=O)c4ccc(C)cc4)C=C[C@@]31CCN(C)C2 [1d, 6-O-(4-methylbenzoyl)galanthamine] | 35.4 µM | 15.6 µg/mL | – | 15.6 µg/mL (≈ 38.5 µM) | 31.2 µg/mL (≈ 77.1 µM) | – | – | – |
| COc1ccc2c3c1O[C@H]1C[C@@H](OC(=O)c4cccc(C)c4C)C=C[C@@]31CCN(C)C2 [1e, 6-O-(2,3-dimethylbenzoyl)galanthamine] | 17.1 µM | 7.81 µg/mL | – | 15.6 µg/mL (≈ 37.2 µM) | 31.2 µg/mL (≈ 74.5 µM) | 1.05 | 17.9 ± 2.6 µM | – |
| COc1ccc2c3c1O[C@H]1C[C@@H](OC(=O)c4cc(C)cc(C)c4)C=C[C@@]31CCN(C)C2 [1f, 6-O-(3,5-dimethylbenzoyl)galanthamine] | 17.1 µM | 7.81 µg/mL | – | 7.81 µg/mL (≈ 18.6 µM) | 7.81 µg/mL (≈ 18.6 µM) | 1.03 | 17.6 ± 4.7 µM | – |
| COc1ccc2c3c1O[C@H]1C[C@@H](OC(=O)c4c(C)cc(C)cc4C)C=C[C@@]31CCN(C)C2 [1g, 6-O-(2,4,6-trimethylbenzoyl)galanthamine] | 18 µM | 7.81 µg/mL | – | 15.6 µg/mL (≈ 36 µM) | 31.2 µg/mL (≈ 72.1 µM) | 0.77 | 13.9 ± 0.8 µM | – |
| COc1ccc2c3c1O[C@H]1C[C@@H](OC(=O)c4ccc(C(C)(C)C)cc4)C=C[C@@]31CCN(C)C2 [1h, 6-O-(4-tert-butylbenzoyl)galanthamine] | 6.9 µM | 3.12 µg/mL | – | 7.81 µg/mL (≈ 17.4 µM) | 7.81 µg/mL (≈ 17.4 µM) | 2.43 | 16.8 ± 4.2 µM | 3.12 to 7.81 µg/mL (≈ 6.98 to 17.4 µM) |
| COc1ccccc1C(=O)O[C@H]1C=C[C@@]23CCN(C)Cc4ccc(OC)c(c42)O[C@H]3C1 [1j, 6-O-(2-methoxybenzoyl)galanthamine] | 148 µM | 62.5 µg/mL | – | 125 µg/mL (≈ 297 µM) | 250 µg/mL (≈ 593 µM) | – | – | – |
| COc1cccc(C(=O)O[C@H]2C=C[C@@]34CCN(C)Cc5ccc(OC)c(c53)O[C@H]4C2)c1 [1k, 6-O-(3-methoxybenzoyl)galanthamine] | 68.3 µM | 31.2 µg/mL | – | 31.2 µg/mL (≈ 74.1 µM) | 62.5 µg/mL (≈ 148 µM) | – | – | – |
| COc1ccc(C(=O)O[C@H]2C=C[C@@]34CCN(C)Cc5ccc(OC)c(c53)O[C@H]4C2)cc1 [1l, 6-O-(4-methoxybenzoyl)galanthamine] | 68.3 µM | 31.2 µg/mL | – | 31.2 µg/mL (≈ 74.1 µM) | 62.5 µg/mL (≈ 148 µM) | – | – | – |
| COc1ccc(C(=O)O[C@H]2C=C[C@@]34CCN(C)Cc5ccc(OC)c(c53)O[C@H]4C2)cc1OC [1m, 6-O-(3,4-dimethoxybenzoyl)galanthamine] | 128 µM | 62.5 µg/mL | – | 125 µg/mL (≈ 277 µM) | 250 µg/mL (≈ 554 µM) | – | – | – |
| COc1cc(OC)cc(C(=O)O[C@H]2C=C[C@@]34CCN(C)Cc5ccc(OC)c(c53)O[C@H]4C2)c1 [1n, 6-O-(3,5-dimethoxybenzoyl)galanthamine] | 34.6 µM | 15.6 µg/mL | – | 31.2 µg/mL (≈ 69.2 µM) | 31.2 µg/mL (≈ 69.2 µM) | – | – | – |
| COc1cc(C(=O)O[C@H]2C=C[C@@]34CCN(C)Cc5ccc(OC)c(c53)O[C@H]4C2)cc(OC)c1OC [1o, 6-O-(3,4,5-trimethoxybenzoyl)galanthamine] | 121 µM | 62.5 µg/mL | – | 125 µg/mL (≈ 260 µM) | 250 µg/mL (≈ 519 µM) | – | – | – |
| COc1ccc2c3c1O[C@H]1C[C@@H](OC(=O)c4ccco4)C=C[C@@]31CCN(C)C2 [1s, 6-O-(2-furoyl)galanthamine] | 150 µM | 62.5 µg/mL | – | 250 µg/mL (≈ 655 µM) | ≥ 500 µg/mL | – | – | – |
| COC1CC2C(=CC1O)C1CN2Cc2cc3c(cc21)OCO3 (stereo not shown) [3-O-methylpancracine (3), 3-O-methylpancracine] | ≥ 1660 µM | ≥ 500 µg/mL | – | ≥ 500 µg/mL | ≥ 500 µg/mL | – | – | – |
